molecular target: T1, PRMT5/MEP50 complex (Homo sapiens, UniProt O14744); assay: PRMT5:MEP50 HotSpot Assay (full-length histone H2A substrate, plus and minus MTA); assay type: biochemical; conditions: IC50 + 2 μM MTA, in the presence of 2 μM MTA
T1 construct: purchased Reaction Biology Corporation
Experimental: The PRMT5 inhibitory activity of compounds of the present invention was determined using either a PRMT5:MEP50 FlashPlate Assay (Reaction Biology Corporation) or a PRMT5:MEP50 HotSpot Assay (Reaction Biology Corporation).
The assay uses recombinant full-length hi stone H2A as the PRMT5 substrate. […] The reaction was stopped and transferred to filter paper for detection. The amount of tritiated H2A in each sample was determined using a scintillation counter.

T1 sequence (O14744 2-637 limits assumed): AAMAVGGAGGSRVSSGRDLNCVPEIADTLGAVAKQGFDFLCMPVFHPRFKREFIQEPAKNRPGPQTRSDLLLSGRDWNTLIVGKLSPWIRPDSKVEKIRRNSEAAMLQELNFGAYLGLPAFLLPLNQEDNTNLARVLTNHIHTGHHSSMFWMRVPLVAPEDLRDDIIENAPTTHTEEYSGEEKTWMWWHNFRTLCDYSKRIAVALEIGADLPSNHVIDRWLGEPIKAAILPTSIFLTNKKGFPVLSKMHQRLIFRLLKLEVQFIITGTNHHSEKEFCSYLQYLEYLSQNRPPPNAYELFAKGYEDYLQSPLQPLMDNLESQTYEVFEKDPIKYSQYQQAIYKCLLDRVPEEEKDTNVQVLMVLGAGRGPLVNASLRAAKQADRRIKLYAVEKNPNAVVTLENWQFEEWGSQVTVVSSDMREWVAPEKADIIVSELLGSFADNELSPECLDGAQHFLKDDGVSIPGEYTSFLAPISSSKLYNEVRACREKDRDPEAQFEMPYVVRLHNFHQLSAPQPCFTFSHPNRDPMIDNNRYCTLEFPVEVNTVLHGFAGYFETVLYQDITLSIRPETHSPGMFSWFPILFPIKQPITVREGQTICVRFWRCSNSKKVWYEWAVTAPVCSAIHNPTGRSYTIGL
T1 sequence (Q9BQA1 2-342 partner limits assumed): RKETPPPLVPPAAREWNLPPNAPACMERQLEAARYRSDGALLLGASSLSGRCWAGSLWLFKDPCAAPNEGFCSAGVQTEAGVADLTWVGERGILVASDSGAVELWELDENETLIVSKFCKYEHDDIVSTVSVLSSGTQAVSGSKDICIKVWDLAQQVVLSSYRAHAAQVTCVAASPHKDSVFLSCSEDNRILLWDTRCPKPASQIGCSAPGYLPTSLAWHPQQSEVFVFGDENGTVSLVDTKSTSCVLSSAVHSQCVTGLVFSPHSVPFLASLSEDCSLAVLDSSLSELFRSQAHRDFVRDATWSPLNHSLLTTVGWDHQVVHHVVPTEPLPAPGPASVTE

IC50 [nM] | Structure (SMILES)
543 | Cc1cnc2cc(F)c(-c3c(-c4ccc5c(=O)[nH]nc(CN)c5c4)cnn3C)c(C#N)c2c1 (atropisomer, axis not shown; (P)) [Example 16-36, (P)-6-[4-[4-(aminomethyl)-1-oxo-2H-phthalazin-6-yl]-2-methyl-pyrazol-3-yl]-7-fluoro-3-methyl-quinoline-5-carbonitrile]
2950 | Cn1ncc(-c2ccc3c(=O)[nH]nc(CN)c3c2)c1-c1c(F)c(Cl)cc(CC2CC2)c1C#N (single isomer, unassigned) [Example 16-125, (P)-2-(4-(4-(aminomethyl)-1-oxo-1,2-dihydrophthalazin-6-yl)-1-methyl-1H-pyrazol-5-yl)-4-chloro-6-(cyclopropylmethyl)-3-fluorobenzonitrile]
5250 | Cn1ncc(-c2ccc3c(=O)[nH]nc(CN)c3c2)c1-c1c(C(F)F)cc2ccccc2c1C#N (single isomer, unassigned) [Example 16-129, (P)-2-(4-(4-(aminomethyl)-1-oxo-1,2-dihydrophthalazin-6-yl)-1-methyl-1H-pyrazol-5-yl)-3-(difluoromethyl)-1-naphthonitrile]
737 | Cn1nnc(-c2ccc3c(=O)[nH]nc(CN)c3c2)c1-c1sc2ccccc2c1C#N [Example 4-291, 2-(4-(4-(aminomethyl)-1-oxo-1,2-dihydrophthalazin-6-yl)-1-methy1-1H-1,2,3-triazol-5-yl)benzo[b]thiophene-3-carbonitrile]
70 | Cn1ncc(-c2ccc3c(=O)[nH]nc(CN)c3c2)c1-c1c(Cl)c(Cl)cc(OC2CC2)c1C#N (single isomer, unassigned) [Example 16-124, (M)-2-(4-(4-(aminomethyl)-1-oxo-1,2-dihydrophthalazin-6-yl)-1-methyl-1H-pyrazol-5-yl)-3,4-dichloro-6-cyclopropoxybenzonitrile]
> 10000 | Cc1c(Cl)cc(OC2CC2)c(C#N)c1-c1c(-c2ccc3c(=O)[nH]nc(CN)c3c2)cnn1C (single isomer, unassigned) [Example 16-121, (M)-2-(4-(4-(aminomethyl)-1-oxo-1,2-dihydrophthalazin-6-yl)-1-methyl-1H-pyrazol-5-yl)-4-chloro-6-cyclopropoxy-3-methylbenzonitrile]
4080 | Cn1ncc(-c2ccc3c(=O)[nH]nc(CN)c3c2)c1N1CCCCC1C#N (stereo not shown) [Example 4-289, 1-(4-(4-(aminomethyl)-1-oxo-1,2-dihydrophthalazin-6-yl)-1-methyl-1H-pyrazol-5-yl)piperidine-2-carbonitrile]
112 | Cc1c(Cl)cc(OC2CC2)c(C#N)c1-c1c(-c2ccc3c(=O)[nH]nc(CN)c3c2)cnn1C (single isomer, unassigned) [Example 16-122, (P)-2-(4-(4-(aminomethyl)-1-oxo-1,2-dihydrophthalazin-6-yl)-1-methyl-1H-pyrazol-5-yl)-4-chloro-6-cyclopropoxy-3-methylbenzonitrile]
1000 | Cn1ncc(-c2ccc3c(=O)[nH]nc(CN)c3c2)c1-c1ccc2n1C(=O)CCC2 [Example 4-278, 4-(aminomethyl)-6-(1-methyl-5-(5-oxo-5,6,7,8-tetrahydroindolizin-3-yl)-1H-pyrazol-4-yl)phthalazin-1(2H)-one]
29 | Cn1ncc(-c2ccc3c(=O)[nH]nc(CN)c3c2)c1-c1c(F)c(Cl)cc(CC2CC2)c1C#N (single isomer, unassigned) [Example 16-126, (M)-2-(4-(4-(aminomethyl)-1-oxo-1,2-dihydrophthalazin-6-yl)-1-methyl-1H-pyrazol-5-yl)-4-chloro-6-(cyclopropylmethyl)-3-fluorobenzonitrile]
5 | Cc1c(F)c(-c2c(-c3cc(C)c4c(=O)[nH]nc(CN)c4c3)cnn2C)c(C#N)c2cc(Cl)cnc12 (single isomer, unassigned) [Example 16-108, (M)-6-(4-(4-(aminomethyl)-8-methyl-1-oxo-1,2-dihydrophthalazin-6-yl)-1-methyl-1H-pyrazol-5-yl)-3-chloro-7-fluoro-8-methylquinoline-5-carbonitrile]
200 | C[C@H](N)c1n[nH]c(=O)c2ccc(-c3cnn(C)c3-c3ccc4ccccc4c3C#N)nc12 [Example 20-2]
92 | Cn1ncc(-c2ccc3c(=O)[nH]nc(CN)c3c2)c1-c1c(C(F)F)cc2ccccc2c1C#N (single isomer, unassigned) [Example 16-130, (M)-2-(4-(4-(aminomethyl)-1-oxo-1,2-dihydrophthalazin-6-yl)-1-methyl-1H-pyrazol-5-yl)-3-(difluoromethyl)-1-naphthonitrile]
955 | Cn1ncc(-c2ccc3c(=O)[nH]nc(CN)c3c2)c1-c1c(F)cc(S(F)(F)(F)(F)F)cc1C#N (atropisomer, axis not shown; (M)) [Example 16-134, (M)-2-(4-(4-(aminomethyl)-1-oxo-1,2-dihydrophthalazin-6-yl)-1-methyl-1H-pyrazol-5-yl)-3-fluoro-5-(pentafluoro-16-sulfanyl)benzonitrile]
1480 | Cc1ncc(-c2ccc3c(=O)[nH]nc(CN)c3c2)n1-c1sc2ccccc2c1C#N [Example 4-288, 2-(5-(4-(aminomethyl)-1-oxo-1,2-dihydrophthalazin-6-yl)-2-methyl-1H-imidazol-1-yl)benzo[b]thiophene-3-carbonitrile]
1370 | Cc1c(F)c(-c2c(-c3cc(Cl)c4c(=O)[nH]nc(CN)c4c3)cnn2C)c(C#N)c2cc(Cl)cnc12 (single isomer, unassigned) [Example 16-109, (P)-6-(4-(4-(aminomethyl)-8-chloro-1-oxo-1,2-dihydrophthalazin-6-yl)-1-methyl-1H-pyrazol-5-yl)-3-chloro-7-fluoro-8-methylquinoline-5-carbonitrile]
7510 | COc1nnc(CN)c2cc(-c3cnn(C)c3-c3sc4ccccc4c3C#N)ccc12 [Example 17-6]
1310 | Cn1ncc(-c2cnc3c(=O)[nH]nc(CN)c3c2)c1-c1sc2ccccc2c1C#N [Example 17-4, 2-(4-(5-(aminomethyl)-8-oxo-7,8-dihydropyrido[2,3-d]pyridazin-3-yl)-1-methyl-1H-pyrazol-5-yl)benzo[b]thiophene-3-carbonitrile]
1270 | Cn1ncc(-c2cc(C(=O)C(F)F)c3c(=O)[nH]nc(CN)c3c2)c1-c1sc2ccccc2c1C#N [Example 15-9, 2-(4-(4-(aminomethyl)-8-(2,2-difluoro-acetyl)-1-oxo-1,2-dihydrophthalazin-6-yl)--methyl-1H-pyrazol-5-yl)benzo[b]-thiophene-3-carbonitrile]
4000 | Cn1ncc(-c2ccc3c(=O)[nH]nc(CN)c3c2)c1-c1c(Cl)c(Cl)cc(OC2CC2)c1C#N (single isomer, unassigned) [Example 16-123, (P)-2-(4-(4-(aminomethyl)-1-oxo-1,2-dihydrophthalazin-6-yl)-1-methyl-1H-pyrazol-5-yl)-3,4-dichloro-6-cyclopropoxybenzonitrile]

same assay, conditions: in the absence of MTA, read-out: IC50

IC50 [nM] | Structure (SMILES)
> 10000 | Cn1ncc(-c2ccc3c(=O)[nH]nc(CN)c3c2)c1-c1ccccc1C#N [Example 4-100, 2-(4-(4-(aminomethyl)-1-oxo-1,2-dihydrophthalazin-6-yl)-1-methyl-1H-pyrazol-5-yl)benzonitrile]

same assay, conditions: read-out: IC50 + 2 μM MTA, in the presence of 2 μM MTA

IC50 [nM] | Structure (SMILES)
> 10000 | Cn1ncc(-c2ccc3c(=O)[nH]nc(CN)c3c2)c1-c1c(C2COC2)ccc2c1COC2 (atropisomer, axis not shown; (M)) [Example 16-138, (M)-4-(aminomethyl)-6-(1-methyl-5-(5-(oxetan-3-yl)-1,3-dihydroisobenzofuran-4-yl)-1H-pyrazol-4-yl)phthalazin-1(2H)-one]

test system: HCT116 homozygous MTAP knockout cells; assay: Proliferation assay (CellTiter-Glo, 10 days) in HCT116 homozygous MTAP knockout cells; assay type: cell-based; conditions: CellTiter-Glo after 10 days of treatment, read-out: Proliferation IC50 (nM) HCT116 MTAP_KO
Experimental: HCT116 cells were genetically engineered to knock out the function of both MTAP alleles using a CRISPR/Cas9 system and an sgRNA targeting the MTAP gene. Following Cas9/MTAP sgRNA transduction, clones were screened to confirm that each allele of the MTAP gene had been inactivated (i.e., homozygous MTAP knock out) creating an MTAP-deficient cell.
Control samples were analyzed in parallel.
Briefly, on Day 0, 250 HCT116 parental or HCT116 homozygous MTAP knockout cell were seeded in 96 well plates in McCoy's 5A supplemented with […] fetal bovine serum and pen/strep and the cells were incubated overnight at 37° C. plus 5% CO2.
The following day, cells were treated with DMSO vehicle control or a dose response of PRMT5 inhibitors and incubated at 37 C plus 5% CO2 for five days. On Day 6, the cells were trypsinized and split 1:10 into new 96-well plates with fresh medium containing the same concentration of PRMT5 inhibitor and incubated for an additional 5 days at 37° C. plus 5% CO^2.
On Day 11, the viability of the cells was measured using a CTG assay kit (CellTiter-Glo; Promega cat.no G7573) in accordance with the manufacturer's instructions. The IC50 values for each compound after 10 days of treatment were calculated using GraphPad PRISM software.

IC50 [nM] | Structure (SMILES)
3450 | Cn1ncc(-c2ccc3c(=O)[nH]nc(CN)c3c2)c1-c1cccc2c1COCC2(C)O (atropisomer, axis not shown; (P)) [Example 16-104, (P)-4-(aminomethyl)-6-(5-(4-hydroxy-4-methylisochroman-8-yl)-1-methyl-1H-pyrazol-4-yl)phthalazin-1(21)-one]

same assay, conditions: Homo sapiens, HCT-116, 240 h, CellTiter-Glo after 10 days of treatment, read-out: Proliferation IC50 (nM) HCT116 MTAP_KO

IC50 [nM] | Structure (SMILES)
1880 | Cn1ncc(-c2ccc3c(=O)[nH]nc(CN)c3c2)c1-c1sc2cccnc2c1C#N [Example 4-275, 2-(4-(4-(aminomethyl)-1-oxo-1,2-dihydrophthalazin-6-yl)-1-methyl-1H-pyrazol-5-yl)thieno[3,2-b]pyridine-3-carbonitrile]
4000 | Cn1ncc(-c2ccc3c(=O)[nH]nc(CN)c3c2)c1-c1cccc2c1COCC2(C)O (atropisomer, axis not shown; (M)) [Example 16-103, (M)-4-(aminomethyl)-6-(5-(4-hydroxy-4-methylisochroman-8-yl)-1-methyl-1H-pyrazol-4-yl)phthalazin-1(2H)-one]

From patent US20240208912A1 (Mirati Therapeutics, Inc., priority 2021, published 2024)
